ChEMBL document CHEMBL4406824, “Phenolic N-monosubstituted carbamates: Antitubercular and toxicity evaluation of multi-targeting compounds” (Eur J Med Chem, 2019)
In brackets after ≈: the same amount, converted by molar mass.

Columns and labels:
Mycobacterium kansasii [1] = experiment: Antimycobacterial activity against Mycobacterium kansasii 235/80 after 14 days; type: functional; settings: 235/80, 336 h
in vitro = settings: human, HepG2 cells
Description: Selectivity index, ratio of IC50 for human HepG2 cells to MIC for antimycobacterial activity against Mycobacterium tuberculosis H37Rv

[2] = system: Mycobacterium tuberculosis; experiment: Antimycobacterial activity against XDR Mycobacterium tuberculosis Praha 131 after 14 days; type: functional; settings: Praha 131, 336 h
Mycobacterium kansasii [3] = experiment: Antimycobacterial activity against Mycobacterium kansasii 6509/96 after 7 days; type: functional; settings: 6509/96, 168 h
HepG2 [4] = experiment: Cytostatic activity against human HepG2 cells preincubated for overnight in serum free medium followed by compound wash out and further incubated for 72 hrs in presence of serum by MTT assay; type: ADME, cell-based
HepG2 [5] = experiment: Cytotoxicity against human HepG2 cells assessed as reduction in cell viability after overnight incubation by MTT assay; type: cell-based
Mycobacterium kansasii [6] = experiment: Antimycobacterial activity against Mycobacterium kansasii 6509/96 after 21 days; type: functional; settings: 6509/96, 504 h
[7] = system: Mycobacterium tuberculosis H37Rv; experiment: Inhibition of recombinant Mycobacterium tuberculosis H37Rv ICL1 expressed in Escherichia coli BL21 (DE3) cells at 10 uM using (+)-potassium Ds-threo-isocitrate as substrate by glyoxylate phenyl hydrazone formation assay relative to control
[8] = system: Mycobacterium tuberculosis; type: functional, H37Rv 331/88; set-up: reference not given here
[9] = system: Mycolicibacterium smegmatis; experiment: Antimycobacterial activity against Mycobacterium smegmatis DSM 43465 after 120 hr by resazurin dye based microdilution method; type: functional; settings: DSM 43465, 120 h
[10] = system: Mycobacterium tuberculosis; experiment: Antimycobacterial activity against Mycobacterium tuberculosis H37Ra ITM-M006710 after 48 hr by resazurin dye based microdilution method; type: functional; settings: H37Ra ITM-M006710, 48 h
Mycobacterium kansasii [11] = experiment: Potency index, ratio of p-aminosalicylic acid MIC to compound MIC for antimycobacterial activity against Mycobacterium kansasii 6509/96; type: functional
Mycobacterium kansasii [12] = experiment: Antimycobacterial activity against Mycobacterium kansasii 235/80 after 7 days; type: functional; settings: 235/80, 168 h
Mycobacterium kansasii [13] = experiment: Potency index, ratio of p-aminosalicylic acid MIC to compound MIC for antimycobacterial activity against Mycobacterium kansasii 235/80; type: functional
[14] = system: Mycobacterium tuberculosis; type: functional; settings: H37Rv 331/88, 504 h
Mycobacterium avium [15] = experiment: Antimycobacterial activity against Mycobacterium avium 330/88 after 14 days; type: functional; settings: 330/88, 336 h
Mycobacterium kansasii [16] = experiment: Antimycobacterial activity against Mycobacterium kansasii 235/80 after 21 days; type: functional; settings: 235/80, 504 h
Mycobacterium kansasii [17] = experiment: Antimycobacterial activity against Mycobacterium kansasii 6509/96 after 14 days; type: functional; settings: 6509/96, 336 h
[18] = system: Mycobacterium tuberculosis; experiment: Antimycobacterial activity against XDR Mycobacterium tuberculosis Praha 131 after 21 days; type: functional; settings: Praha 131, 504 h
Mycolicibacterium aurum = experiment: Antimycobacterial activity against Mycobacterium aurum DSM 43999 after 72 hr by resazurin dye based microdilution method; type: functional; settings: DSM 43999, 72 h
Mycobacterium avium [19] = experiment: Antimycobacterial activity against Mycobacterium avium 330/88 after 21 days; type: functional; settings: 330/88, 504 h
[20] = system: Mycobacterium tuberculosis; type: functional; settings: H37Rv 331/88, 336 h
Mycobacterium avium [21] = experiment: Potency index, ratio of p-aminosalicylic acid MIC to compound MIC for antimycobacterial activity against Mycobacterium avium 330/88; type: functional
Isocitrate lyase = biological target: T1, Isocitrate lyase (Mycobacterium tuberculosis, UniProt P9WKK7); experiment: Inhibition of recombinant Mycobacterium tuberculosis ICL expressed in Escherichia coli BL21 (DE3) cells using DL-isocitric acid trisodium salt hydrate as substrate after 30 mins
T1 sequence (P9WKK7 whole entry): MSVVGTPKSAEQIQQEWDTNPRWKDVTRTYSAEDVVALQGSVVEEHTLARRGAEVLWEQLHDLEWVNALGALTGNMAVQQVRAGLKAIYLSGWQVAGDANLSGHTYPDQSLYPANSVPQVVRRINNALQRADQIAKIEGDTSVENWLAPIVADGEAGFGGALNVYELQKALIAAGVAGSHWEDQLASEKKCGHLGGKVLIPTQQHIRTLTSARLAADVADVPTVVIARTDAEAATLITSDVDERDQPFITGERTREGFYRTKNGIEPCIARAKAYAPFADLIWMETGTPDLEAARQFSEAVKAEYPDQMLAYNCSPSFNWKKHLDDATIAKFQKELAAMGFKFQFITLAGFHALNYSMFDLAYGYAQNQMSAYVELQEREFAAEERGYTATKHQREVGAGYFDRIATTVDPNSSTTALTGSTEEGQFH

## O=C(NC1CCCCC1)Oc1ccc(Cl)cc1C(=O)Nc1ccc(C(F)(F)F)cc1
Mycobacterium kansasii [1]
  MIC: 4 µM (≈ 1.76 µg/mL)
In vitro
  selectivity ratio: > 125
[2]
  MIC: 0.5 µM (≈ 0.22 µg/mL)
Mycobacterium kansasii [3]
  MIC: 2 µM (≈ 0.882 µg/mL)
HepG2 [4]
  IC50: 0.75 µM
HepG2 [5]
  IC50: > 125 µM
Mycobacterium kansasii [6]
  MIC: 4 µM (≈ 1.76 µg/mL)
[7]
  inhibition: 14%
[8]
  Ratio: >125
[9]
  MIC: ≤ 0.88 µM
[10]
  MIC: ≤ 0.88 µM
Mycobacterium kansasii [11]
  Ratio: >250
Mycobacterium kansasii [12]
  MIC: 4 µM (≈ 1.76 µg/mL)
Mycobacterium kansasii [13]
  Ratio: >250
[14]
  MIC: 1 µM (≈ 0.441 µg/mL)
Mycobacterium avium [15]
  MIC: 8 µM (≈ 3.53 µg/mL)
Mycobacterium kansasii [16]
  MIC: 8 µM (≈ 3.53 µg/mL)
Mycobacterium kansasii [17]
  MIC: 4 µM (≈ 1.76 µg/mL)
[18]
  MIC: 1 µM (≈ 0.441 µg/mL)
Mycolicibacterium aurum
  MIC: ≤ 0.88 µM
Mycobacterium avium [19]
  MIC: 8 µM (≈ 3.53 µg/mL)
[20]
  MIC: 1 µM (≈ 0.441 µg/mL)

## O=C(NC12CC3CC(CC(C3)C1)C2)Oc1ccc(Cl)cc1C(=O)Nc1ccc(C(F)(F)F)cc1
Mycobacterium kansasii [1]
  MIC: 4 µM (≈ 1.97 µg/mL)
In vitro
  selectivity ratio: > 125
[2]
  MIC: 1 µM (≈ 0.493 µg/mL)
Mycobacterium kansasii [3]
  MIC: 4 µM (≈ 1.97 µg/mL)
HepG2 [4]
  IC50: 4.85 µM
HepG2 [5]
  IC50: > 125 µM
Mycobacterium kansasii [6]
  MIC: 4 µM (≈ 1.97 µg/mL)
[7]
  inhibition: 15%
[8]
  Ratio: >125
[9]
  MIC: 4 µM (≈ 1.97 µg/mL)
[10]
  MIC: 2 µM (≈ 0.986 µg/mL)
Mycobacterium kansasii [11]
  Ratio: >250
Mycobacterium kansasii [12]
  MIC: 4 µM (≈ 1.97 µg/mL)
Mycobacterium kansasii [13]
  Ratio: >250
[14]
  MIC: 1 µM (≈ 0.493 µg/mL)
Mycobacterium avium [21]
  Ratio: >31
Mycobacterium avium [15]
  MIC: 4 µM (≈ 1.97 µg/mL)
Mycobacterium kansasii [16]
  MIC: 4 µM (≈ 1.97 µg/mL)
Mycobacterium kansasii [17]
  MIC: 4 µM (≈ 1.97 µg/mL)
[18]
  MIC: 1 µM (≈ 0.493 µg/mL)
Mycolicibacterium aurum
  MIC: ≤ 0.79 µM
Mycobacterium avium [19]
  MIC: 4 µM (≈ 1.97 µg/mL)
[20]
  MIC: ≤ 0.5 µM

## COC(=O)/C=C/C(=O)c1ccc(OC)cc1
Isocitrate lyase
  IC50: 30.9 µM
